Results as given in PubChem BioAssay AID1918937 (Molecular Pharmacology Branch, DTP, NCI, 2023).

Tested on: 521955-158-R2-J5-PDC complex spheroid viability
Experiment: Anticancer human tumor 521955-158-R2-J5-PDC patient-derived pancreatic carcinoma cell line growth inhibition
Settings: for IC50: curve of first compound; for viability, T/C: stronger effect = lower value
Outline: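 Complex spheroids of tumor cells with HUVEC and human MSCs, exposed to iadademstat combined with other agents. Each agent tested in half-log steps from near clinical Cmax (else 10 microM top), DMSO ≤0.25%.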

[1] = second compound 0.1 µM, first compound 0.0316 µM
[2] = second compound 0.1 µM, first compound 0.1 µM
[3] = second compound 0.1 µM, first compound 0.316 µM
[4] = second compound 0.1 µM, first compound 1 µM
[5] = second compound 0.316 µM, first compound 0.0316 µM
[6] = second compound 0.316 µM, first compound 0.1 µM
[7] = second compound 0.316 µM, first compound 0.316 µM
[8] = second compound 0.316 µM, first compound 1 µM
[9] = second compound 1 µM, first compound 0.0316 µM
[10] = second compound 1 µM, first compound 0.1 µM
[11] = second compound 1 µM, first compound 0.316 µM
[12] = second compound 1 µM, first compound 1 µM
[13] = second compound 3.16 µM, first compound 0.0316 µM
[14] = second compound 3.16 µM, first compound 0.1 µM
[15] = second compound 3.16 µM, first compound 0.316 µM
[16] = second compound 3.16 µM, first compound 1 µM
[17] = second compound 10 µM, first compound 0.0316 µM
[18] = second compound 10 µM, first compound 0.1 µM
[19] = second compound 10 µM, first compound 0.316 µM
[20] = second compound 10 µM, first compound 1 µM
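Also: spheroids exposed to agents for seven days.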
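For viability, T/C in this document: percent of DMSO vehicle control luminescence viability.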

CC1COCCN1c1cc(-c2ccnn2C)c2ccnc(-c3ccn[nH]3)c2n1 (stereo not given) + NC1CC1c1ccc(-c2cccc(O)c2)cc1
IC50 (second compound 0.1 µM): < 3.16 nM | IC50 (second compound 0.316 µM): < 3.16 nM | IC50 (second compound 1 µM): < 3.16 nM | IC50 (second compound 3.16 µM): < 3.16 nM | IC50 (second compound 10 µM): < 3.16 nM | viability, T/C (second compound 0.1 µM, first compound 0.00316 µM): 15.7% | viability, T/C (second compound 0.1 µM, first compound 0.01 µM): 16.1% | viability, T/C [1]: 17.3% | viability, T/C [2]: 25.2% | viability, T/C [3]: 29.5% | viability, T/C [4]: 10.9% | viability, T/C (second compound 0.316 µM, first compound 0.00316 µM): 23.3% | viability, T/C (second compound 0.316 µM, first compound 0.01 µM): 16.2% | viability, T/C [5]: 17.9% | viability, T/C [6]: 26.1% | viability, T/C [7]: 28.5% | viability, T/C [8]: 10.6% | viability, T/C (second compound 1 µM, first compound 0.00316 µM): 22.9% | viability, T/C (second compound 1 µM, first compound 0.01 µM): 19.6% | viability, T/C [9]: 18.9% | viability, T/C [10]: 25.4% | viability, T/C [11]: 26.6% | viability, T/C [12]: 10.6% | viability, T/C (second compound 3.16 µM, first compound 0.00316 µM): 22.8% | viability, T/C (second compound 3.16 µM, first compound 0.01 µM): 19.7% | viability, T/C [13]: 21.1% | viability, T/C [14]: 24.9% | viability, T/C [15]: 26.1% | viability, T/C [16]: 9.32% | viability, T/C (second compound 10 µM, first compound 0.00316 µM): 26.7% | viability, T/C (second compound 10 µM, first compound 0.01 µM): 22.6% | viability, T/C [17]: 22.5% | viability, T/C [18]: 26.9% | viability, T/C [19]: 22.4% | viability, T/C [20]: 9.48%

COc1ccc([C@@H](O)c2cc(-c3ncnc4cc(N5CCOCC5)ccc34)c(F)cc2Cl)nn1 + NC1CC1c1ccc(-c2cccc(O)c2)cc1
IC50 (second compound 0.1 µM): 1230 nM | IC50 (second compound 0.316 µM): 1640 nM | IC50 (second compound 1 µM): 1310 nM | IC50 (second compound 3.16 µM): 1210 nM | IC50 (second compound 10 µM): 836 nM | viability, T/C [1]: 72.7% | viability, T/C [2]: 78.3% | viability, T/C [3]: 73.6% | viability, T/C [4]: 49.9% | viability, T/C (second compound 0.1 µM, first compound 3.16 µM): 36.5% | viability, T/C (second compound 0.1 µM, first compound 10 µM): 21.6% | viability, T/C [5]: 74.3% | viability, T/C [6]: 69.5% | viability, T/C [7]: 68.2% | viability, T/C [8]: 57.6% | viability, T/C (second compound 0.316 µM, first compound 3.16 µM): 39.9% | viability, T/C (second compound 0.316 µM, first compound 10 µM): 20.6% | viability, T/C [9]: 76.1% | viability, T/C [10]: 72% | viability, T/C [11]: 63.1% | viability, T/C [12]: 55.5% | viability, T/C (second compound 1 µM, first compound 3.16 µM): 37.3% | viability, T/C (second compound 1 µM, first compound 10 µM): 20.5% | viability, T/C [13]: 74.5% | viability, T/C [14]: 78.7% | viability, T/C [15]: 65.4% | viability, T/C [16]: 53.1% | viability, T/C (second compound 3.16 µM, first compound 3.16 µM): 35.2% | viability, T/C (second compound 3.16 µM, first compound 10 µM): 21.7% | viability, T/C [17]: 75.3% | viability, T/C [18]: 70.6% | viability, T/C [19]: 59.8% | viability, T/C [20]: 49.9% | viability, T/C (second compound 10 µM, first compound 3.16 µM): 31.8% | viability, T/C (second compound 10 µM, first compound 10 µM): 21.6%
